Experiments:
[1] = test system: hSERT S2-binding site mutants (W103azF, Y107azF, W182azF, Y487azF, K490azF); assay: Ultraviolet-induced photocrosslinking of [3H]labelled drug in HEK293T cells; details: 100 nM [3H]drug, 2 h 4 °C, UV 15 min; five S2 azF mutants
[2] = target: hSERT Y487azF (Homo sapiens, UniProt P31645); assay: [3H]5-HT uptake assay (kinetics and uptake inhibition) in HEK293T cells; details: [3H]5-HT uptake inhibition, Y487azF (S2 mutant); mean ± s.e.m.
[3] = target: T1, SERT WT (Homo sapiens, UniProt P31645); assay: as above
[4] = target: hSERT I168azF (Homo sapiens, UniProt P31645); assay: as above
[5] = target: T2, hSERT F341azF (Homo sapiens, UniProt P31645); assay: as above; details: [3H]5-HT uptake inhibition, F341azF (S1 mutant); mean ± s.e.m.
[6] = target: T2, hSERT F341azF; assay: Ultraviolet-induced photocrosslinking of [3H]labelled drug in HEK293T cells
[7] = target: T3, WT hSERT (Homo sapiens, UniProt P31645); assay: Saturation binding of [3H]vortioxetine / [3H]imipramine to HEK293T membranes expressing hSERT; design: expressed in transfected cells; host or cells: HEK293T; details: [3H]ligand saturation binding
[8] = target: hSERT Y175azF (Homo sapiens, UniProt P31645); assay: [3H]5-HT uptake assay (kinetics and uptake inhibition) in HEK293T cells; details: [3H]5-HT uptake inhibition, Y175azF (S1 mutant); mean ± s.e.m.
[9] = target: hSERT Y107azF (Homo sapiens, UniProt P31645); assay: as above
[10] = target: T3, WT hSERT; assay: Ultraviolet-induced photocrosslinking of [3H]labelled drug in HEK293T cells; details: 100 nM [3H]drug, 2 h 4 °C, UV 15 min
[11] = target: hSERT W182azF (Homo sapiens, UniProt P31645); assay: [3H]5-HT uptake assay (kinetics and uptake inhibition) in HEK293T cells; details: [3H]5-HT uptake inhibition, W182azF (S2 mutant); mean ± s.e.m.
[12] = target: T1, SERT WT; assay: [3H]5-HT saturation uptake in the presence of a fixed concentration of vortioxetine (competitive inhibition); assay type: cell-based; design: expressed in transfected cells; host or cells: HEK293T; details: control 4.21 ± 0.45
[13] = target: T4, hSERT Y95azF (Homo sapiens, UniProt P31645); assay: [3H]5-HT uptake assay (kinetics and uptake inhibition) in HEK293T cells
[14] = target: T4, hSERT Y95azF; details: 100 nM [3H]drug, 2 h 4 °C, UV 15 min, 50–100 kDa segment
[15] = target: hSERT K490azF (Homo sapiens, UniProt P31645); assay: [3H]5-HT uptake assay (kinetics and uptake inhibition) in HEK293T cells; details: [3H]5-HT uptake inhibition, K490azF (S2 mutant); mean ± s.e.m.
[16] = target: hSERT F335azF (Homo sapiens, UniProt P31645); assay: as above; details: [3H]5-HT uptake inhibition, F335azF (S1 mutant); mean ± s.e.m.
[17] = target: hSERT W103azF (Homo sapiens, UniProt P31645); assay: as above; details: [3H]5-HT uptake inhibition, W103azF (S2 mutant); mean ± s.e.m.
hSERT W103azF, sequence (P31645 whole entry): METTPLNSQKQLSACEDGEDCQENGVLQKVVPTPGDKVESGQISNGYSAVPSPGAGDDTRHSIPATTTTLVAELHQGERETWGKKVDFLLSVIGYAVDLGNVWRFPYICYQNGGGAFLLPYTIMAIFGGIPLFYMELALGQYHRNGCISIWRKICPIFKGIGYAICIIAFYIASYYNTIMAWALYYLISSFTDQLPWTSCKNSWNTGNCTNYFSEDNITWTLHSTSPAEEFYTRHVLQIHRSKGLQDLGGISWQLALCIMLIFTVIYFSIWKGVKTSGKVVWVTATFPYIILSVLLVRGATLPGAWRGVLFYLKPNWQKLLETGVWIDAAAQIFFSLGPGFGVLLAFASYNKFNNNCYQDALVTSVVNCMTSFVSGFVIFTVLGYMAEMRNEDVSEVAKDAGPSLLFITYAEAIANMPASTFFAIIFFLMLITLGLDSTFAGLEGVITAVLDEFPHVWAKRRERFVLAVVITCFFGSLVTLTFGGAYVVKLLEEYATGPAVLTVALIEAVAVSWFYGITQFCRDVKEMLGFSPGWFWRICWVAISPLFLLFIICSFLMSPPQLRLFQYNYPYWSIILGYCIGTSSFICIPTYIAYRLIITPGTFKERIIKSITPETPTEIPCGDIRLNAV

T3 sequence (P31645 whole entry): as above
T1 sequence (P31645 whole entry): as above
T4 sequence (P31645 whole entry): as above
T2 sequence (P31645 whole entry): as above
hSERT I168azF, sequence (P31645 whole entry): as above
hSERT Y107azF, sequence (P31645 whole entry): as above
hSERT K490azF, sequence (P31645 whole entry): as above

`CN(C)CCCN1c2ccccc2CCc2ccccc21` [imipramine] was tested, and the “ultraviolet-induced crosslinking (radioactivity signal vs non-UV control)” value [1] was “did not crosslink”.
`Cc1ccc(Sc2ccccc2N2CCNCC2)c(C)c1` [vortioxetine] was tested, and the Ki [2] was 0.096 ± 0.016 µM, the “ultraviolet-induced crosslinking (radioactivity signal vs non-UV control)” value [1] was “indistinguishable” and the Ki [3] was 0.202 ± 0.019 µM. The “increase in potency (more sensitive) relative to WT hSERT” value ([4]; I168azF vs WT, Ki in [3H]5-HT uptake inhibition) was 10 fold, the Ki ([4]; [3H]5-HT uptake inhibition, I168azF (S1 mutant), mean ± s.e.m.) was 0.019 ± 0.003 µM and the Ki [5] was 0.043 ± 0.005 µM. For the same compound, the “ultraviolet-induced crosslinking (radioactivity signal vs non-UV control)” value ([6]; 100 nM [3H]drug, 2 h 4 °C, UV 15 min, 50–100 kDa segment) was “significant ultraviolet-dependent radioactivity signal was detected”, the “displacement of crosslinking radioactivity signal by unlabelled inhibitor” value ([6]; 100 μM unlabelled inhibitor added before ultraviolet exposure) was “full displacement” and the Kd ([7]; WT hSERT C-terminally fused to 1D4 tag, mean±s.e.m.) was 0.0063 ± 0.0007 µM. For the same compound, the Kd ([7]; WT hSERT without 1D4 tag) was 0.0061 ± 0.0011 µM, the Ki [8] was 0.053 ± 0.006 µM and the “increase in potency (more sensitive) relative to WT hSERT” value ([9]; Y107azF vs WT, Ki in [3H]5-HT uptake inhibition) was 5 fold. For the same compound, the Ki ([9]; [3H]5-HT uptake inhibition, Y107azF (S2 mutant), mean ± s.e.m.) was 0.038 ± 0.009 µM, the “ultraviolet-induced crosslinking (radioactivity signal)” value [10] was “no radioactivity signal was observed” and the Ki [11] was 0.074 ± 0.009 µM. The “Vmax of 5-HT uptake in presence of inhibitor” value ([12]; 0.75 µM vortioxetine) was 4.19 ± 0.50 pmol min-1 per well, the “Vmax of 5-HT uptake in presence of inhibitor” value ([12]; 1 µM vortioxetine) was 4.03 ± 0.36 pmol min-1 per well and the “decrease in potency relative to WT hSERT” value ([13]; Y95azF vs WT, Ki in [3H]5-HT uptake inhibition) was 6 fold. The Ki ([13]; [3H]5-HT uptake inhibition, Y95azF (S1 mutant), mean ± s.e.m.) was 1.24 ± 0.125 µM, the “ultraviolet-induced crosslinking (radioactivity signal vs non-UV control)” value [14] was “no signal was detected” and the Ki [15] was 0.056 ± 0.02 µM. The Ki [16] was 0.054 ± 0.009 µM and the Ki [17] was 0.149 ± 0.012 µM.

Reference: PMC4838859, “Genetically encoded photocrosslinkers locate the high-affinity binding site of antidepressant drugs in the human serotonin transporter” (Nature Communications, 2016)
